The values below come from patent publication US20230331817A1 (The Regents of the University of California, priority 2020, published 2023).

Usually half-life stands for the time in which the quantity being followed falls by half.

Where two headings read alike, the source gives them in different places.

The conditions of data set [1]: cited from earlier work.
Data set [2] concerns primary human dermal skin fibroblasts. Kind of data set: Resazurin reduction (alamarBlue) viability assay, skin fibroblasts. It is filed as cell-based. The procedure:
(§1) Resazurin reduction assay (Fisher Scientific) was used to evaluate the potential cytotoxicity of antifibrinolytic agents toward primary human endothelial cells and skin fibroblasts. Phosphate buffer that was used to dissolve the samples was included as negative control. The assay is based on reduction of the non-fluorescent dye resazurin, to the highly fluorescent resorufin by viable cells. […] Briefly, cells in 96-well cell culture plates were treated with different concentrations of antifibrinolytic compounds (as described above). After 24 hours resazurin reagent was added to each well and the plates were incubated at 37° C. for 4 hours. Fluorescence was measured by the FLUOstar Omega Microplate Reader (BMG Labtech) using an excitation wavelength of 544 nm and an emission wavelength of 590 nm. Each assay was done in duplicate, with three replicates each. The viability was evaluated based on comparison with untreated cells.
(Resazurin is reduced to fluorescent resorufin, in cell work by metabolically active cells.)

The conditions of data set [3]: cited from earlier work. This is another data set of the same source.
In data set [4] the test system is primary human dermal skin fibroblasts. As to the kind of experiment: Caspase 3/7 assay, skin fibroblasts. It is filed as cell-based. The settings on record: 24 hours; 30 μM KD1TM, 30 μM BPTI, 60 mM EACA, 30 mM TXA. On the procedure: (§2) The influence of antifibrinolytic agents on apoptosis in cells was detected using the Caspase-Glo 3/7 Assay kit (Promega). Caspase 3 and 7 are activated in cells that undergo apoptosis. The assay provides a luminogenic substrate for caspase 3 and 7. Enzymatic activity leads to luminescence, which is proportional to the amount of caspase activity present. Cells were seeded in 96-well plates and treated with antifibrinolytic agents or phosphate buffer (solvent control). Taxol was included as positive control. After 24 hours of treatment, caspase reagent was added to each well, mixed and incubated for 1 hour at room temperature. Luminescence was measured using the FLUOstar Omega Microplate Reader (BMG Labtech).

The subject of data set [5] is HUVEC. It is filed as cell-based, human. On the procedure:
as §1

Data set [6] deals with primary human dermal skin fibroblasts. Particulars: 24 hours; 30 μM KD1TM, 30 μM BPTI, 60 mM EACA, 30 mM TXA. The source says:
(§3) Primary human pooled umbilical vein endothelial cells (HUVEC) were obtained from ATCC. The cells were maintained in Vascular Cell Basal Medium (ATCC), supplemented with the Endothelial Cell Growth Kit-BBE (ATCC) and Penicillin-Streptomycin-Amphotericin B (ATCC). Primary human dermal skin fibroblasts were obtained from LONZA and maintained in Fibroblast Basal Medium (FBMTM, LONZA), supplemented with a cocktail of growth factors, fetal bovine serum and antibiotics (FGMTM-2 SingleQuots™, LONZA). All cells were maintained in a humidified 5% C02 atmosphere at 37° C. and were passaged once they reached 80% confluence. All experiments were performed with cells in the logarithmic growth phase.
(§4) For toxicity studies, cells were seeded into 96-well or 24-well cell culture plates at 3,500 cells/cm2 and were used for experiments once they reached 80% confluence.
(§5) Cell toxicity and cell death was evaluated with the CellTox™ Green Cytotoxicity Assay (Promega). This assay measures changes in membrane integrity that occur as a result of cell death. The dye used in the system is excluded from viable cells but binds to DNA in compromised cells, which results in a fluorescent signal. We measured cell death in HUVEC and primary fibroblasts treated with antifibrinolytic agents at 4 concentrations (as indicated above) with triplicates per concentration in 24-well plates after 24 hours of exposure. Hoechst (Thermo Fisher Scientific) was used to stain all nuclei. Images of cells were captured using an inverted microscope (Nicon; Edipse T2000 TE). Green fluorescent cells (FITC filter) and Hoechst stained cells (DAPI filter) were counted using Image J software.

For data set [7], the system named is HUVEC. The settings on record: 24 hours; 30 μM KD1TM, 30 μM BPTI, 60 mM EACA, 30 mM TXA.
Description: as §3, §4, §5

Another data set has as its target T1, FVIIa/sTF (Homo sapiens, UniProt P08709).
T1 construct: human factor VIIa (FVIIa) was prepared as described previously (34)
Kind of data set: Protease inhibition assay, FVIIa/soluble tissue factor. The class given is biochemical. Particulars: 20 nM FVIIa/sTF; read-out: Ki for Factor VIIa/soluble tissue factor. On the procedure:
(§6) All reactions were carried out in TBS, pH 7.5 (50 mM Tris-HCL, pH 7.5, containing 100 mM NaCl), containing 0.1 mg bovine serum albumin/ml (TBS/BSA) and 2 mM Ca2+(TBS/BSA/Ca2+, pH 7.5). […] The inhibition constant, K* was determined using the nonlinear regression data analysis program Grafit.
(§7) Ki values were obtained by correcting for the effect of substrate according to Beith (38), using equation 2, where (S) is substrate concentration and KM is specific for each enzyme.

For data set [8], the system named is HUVEC. As to the kind of experiment: Caspase 3/7 assay, HUVEC. The class given is cell-based, human. The settings on record: 24 hours; 30 μM KD1TM, 30 μM BPTI, 60 mM EACA, 30 mM TXA. The procedure:
as §2

A further data set has as its target T2, FXa (Homo sapiens, UniProt P00742).
T2 construct: FXa, factor Xa
As to the kind of experiment: Protease inhibition assay, factor Xa. It is filed as biochemical. Particulars: 1 nM FXa. On the procedure: FIG. 2. Data from Equilibrium inhibition constants (Ki) of KD1Y11T/R15KL17R-KT with plasmin, FXIa, kallikrein (KLK), FVIIa/sTF and FXa. Percent activity of 3 nM human plasmin remaining in the presence of various concentrations (0.05 to 19.2 nM) of KD1Y11T/R15KL17R-KT (●) or BPTI (◯). And percent activity of 1 nM human FXIa (▴), 1 nM human kallikrein (●), 20 nM human FVIIa/sTF (Δ) and 1 nM FXa (♦) remaining in the presence of various concentrations (1 μM to 30 μM) of KD1Y11T/R15KL17R-KT.
Ki values for each inhibitor were calculated using the tight binding equations.

Another data set addresses T3, human plasmin (Homo sapiens, UniProt P00747).
T3 construct: purchased Hematologic Technologies Inc (Essex Junction, VT)
Kind of data set: Protease inhibition assay, plasmin (S-2251 amidolytic activity). It is filed as biochemical. Particulars: 3 nM plasmin; 1 hour at room temperature; tight-binding equation. On the procedure: as §6, §7
Reactions were carried out in TBS/BSA and 2 mM calcium. […] Synthetic substrate for plasmin was then added to a final concentration of 1 KM, and residual amidolytic activity was measured in a kinetic microplate reader (Molecular Devices).

For data set [9], the system named is mouse tail bleeding model. Particulars: cited from earlier work.

T1 sequence (P08709 213-466 limits assumed): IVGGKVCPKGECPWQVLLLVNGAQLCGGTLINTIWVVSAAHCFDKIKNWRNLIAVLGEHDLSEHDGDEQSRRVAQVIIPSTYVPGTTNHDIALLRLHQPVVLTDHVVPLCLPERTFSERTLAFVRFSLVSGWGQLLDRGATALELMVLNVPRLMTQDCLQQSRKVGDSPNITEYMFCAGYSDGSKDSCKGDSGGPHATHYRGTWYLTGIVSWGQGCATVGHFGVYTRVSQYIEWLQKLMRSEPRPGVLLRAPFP
T1 sequence (P08709 61-212 limits assumed): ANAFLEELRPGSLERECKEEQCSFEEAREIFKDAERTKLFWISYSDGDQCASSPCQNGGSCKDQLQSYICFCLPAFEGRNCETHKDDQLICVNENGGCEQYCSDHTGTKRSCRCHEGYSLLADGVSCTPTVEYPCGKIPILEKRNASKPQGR
T1 sequence (P13726 33-251 partner limits assumed): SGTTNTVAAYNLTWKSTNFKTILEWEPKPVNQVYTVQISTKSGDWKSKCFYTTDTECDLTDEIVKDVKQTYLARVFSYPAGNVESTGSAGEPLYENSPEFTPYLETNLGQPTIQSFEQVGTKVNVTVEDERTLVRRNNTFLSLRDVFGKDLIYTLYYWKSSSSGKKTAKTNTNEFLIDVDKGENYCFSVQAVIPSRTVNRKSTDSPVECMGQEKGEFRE
T3 sequence (P00747 97-580 limits assumed): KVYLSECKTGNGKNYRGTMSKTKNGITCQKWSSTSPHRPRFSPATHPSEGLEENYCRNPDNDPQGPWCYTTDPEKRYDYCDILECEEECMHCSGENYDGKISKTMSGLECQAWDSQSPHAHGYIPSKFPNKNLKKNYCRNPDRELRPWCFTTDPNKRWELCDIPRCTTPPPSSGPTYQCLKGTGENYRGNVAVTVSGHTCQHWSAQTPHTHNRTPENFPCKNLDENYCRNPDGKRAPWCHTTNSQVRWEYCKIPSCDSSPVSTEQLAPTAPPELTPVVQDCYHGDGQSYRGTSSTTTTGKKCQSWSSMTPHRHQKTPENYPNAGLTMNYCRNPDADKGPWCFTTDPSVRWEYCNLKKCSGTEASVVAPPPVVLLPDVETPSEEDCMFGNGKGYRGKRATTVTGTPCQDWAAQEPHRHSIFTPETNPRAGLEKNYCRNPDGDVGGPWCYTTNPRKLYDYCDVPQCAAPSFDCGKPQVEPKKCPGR
T3 sequence (P00747 581-810 limits assumed): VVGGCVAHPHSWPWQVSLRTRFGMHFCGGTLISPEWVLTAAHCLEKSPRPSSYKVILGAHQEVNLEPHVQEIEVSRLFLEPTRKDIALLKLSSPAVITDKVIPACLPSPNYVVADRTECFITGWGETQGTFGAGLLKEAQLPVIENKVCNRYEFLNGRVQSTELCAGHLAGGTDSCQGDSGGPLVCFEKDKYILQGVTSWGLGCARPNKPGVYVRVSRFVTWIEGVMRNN
T2 sequence (P00742 235-488 limits assumed): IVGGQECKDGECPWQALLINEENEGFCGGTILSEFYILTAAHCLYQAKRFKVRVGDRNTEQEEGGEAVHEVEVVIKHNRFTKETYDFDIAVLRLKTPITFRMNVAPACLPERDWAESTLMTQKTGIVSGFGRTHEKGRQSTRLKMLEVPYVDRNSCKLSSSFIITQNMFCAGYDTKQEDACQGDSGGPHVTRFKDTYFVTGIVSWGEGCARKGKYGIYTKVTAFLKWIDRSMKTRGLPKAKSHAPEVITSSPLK
T2 sequence (P00742 41-179 limits assumed): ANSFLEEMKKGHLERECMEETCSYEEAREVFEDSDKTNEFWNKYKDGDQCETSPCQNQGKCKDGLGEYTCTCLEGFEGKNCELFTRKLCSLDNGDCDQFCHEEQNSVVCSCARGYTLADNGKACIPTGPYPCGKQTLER

For the compound `NC[C@H]1CC[C@H](C(=O)O)CC1` [TXA, tranexamic acid], the plasma half-life in data set [1] (rats and dogs) was approximately 2 h. For the same compound, the “Cell viability, primary human skin fibroblasts (Example 1)” value in data set [2] (24 hours, KD1-Y11T/L17R-KT and aprotinin 0.1 μM-30 μM, EACA 1-60 mM, TXA 0.2-30 mM) is reported as “equally unchanged”. In data set [2] (24 hours, indicated concentrations, p>0.05), the “Fibroblast cell viability (FIG. 5)” value is “not significantly different from the untreated cells”. Also, in data set [3] (humans), the half-life was approximately 2 h. Besides, in [4], the “Apoptosis, caspase-3/7 activity, skin fibroblasts (FIG. 6)” value is given as “not in fibroblasts”. The “HUVEC viability (FIG. 4)” value with HUVEC [5] is “not significantly different from the untreated cells”.

Take aprotinin: the half-life in data set [1] (in vivo) is approximately 1.17 h; in [3] (human, in vivo), approximately 2 h. The “Fibroblasts cytotoxicity, CellTox green (FIG. 8)” value in data set [6] is given as “did not induce toxicity”. Moreover, the “HUVEC cytotoxicity, CellTox green (FIG. 7)” value in the data set with HUVEC [7] is “did not induce toxicity”. In [2], the “Fibroblast cell viability (FIG. 5)” value is recorded as “not significantly different from the untreated cells”. Also, the Ki at FVIIa/sTF was more than 3000 nM; at FXa, more than 3000 nM; on human plasmin, 0.5 ± 0.1 nM. The “Apoptosis, caspase-3/7 activity, HUVEC (FIG. 6)” value in the data set with HUVEC [8] is “did not induce apoptosis”. In addition, in the data set on HUVEC [5], the “HUVEC viability (FIG. 4)” value is “not significantly different from the untreated cells”.

For Textilinin-1 [Q8008], the “Reduction of blood loss” value in data set [9] is “as effective as aprotinin in reducing blood loss”.
